Laboratory results reported in US11304955B2, “Small-molecule povidone analogs in coamorphous pharmaceutical phases” (ISP INVESTMENTS LLC, priority 2017, dated 2022).

What was measured:
[1] = Hot stage microscope experiments with increasing drug:bisVCap ratios; format: physicochemical; details: melted, cooled to room temperature
Protocol: One major problem with PVP as an amorphous stabilizer is that often a large amount is required for stabilization of the amorphous phase. This often leads to very large pills or dosage forms which consist of multiple tablets. Thus further hot stage microscope and DSC experiments of bisVCap mixtures with carisoprodol, carbamazepine, isoniazid and ROY were performed with increasing drug:bisVCap ratios to determine the minimum ratio of coformer required to maintain the API in an amorphous state.
For the microscope experiments the drugs and bisVCap were ground in the desired ratio, heated until all the sample had melted then cooled back to room temperature and analyzed by polarized light microscopy.
(§1) A Linkam LTS420 heating stage attached to a Olympus XC50 microscope was used to heat the samples. Samples were placed on a glass microscope slide with a thin glass cover slide. For the amorphous material screening compounds were ground together in various drug to coformer ratio using 0.05 g of coformer in each case and heated at 30° C. min^−1 until the all of the sample had melted. Samples were then removed from the hot stage and allowed to cool. BisVCap was ground in 1:1 molar mixture with carbamazepine, carisoprodol, isoniazid and ROY. The carbamazepine/bisVCap sample was heated from room temperature to 170° C. at a rate of 10° C. min^−1, cooled at ° C. min^−1 to −40° C., then heated at 10° C. min^−1 to 165° C. The carisoprodol/bisVCap sample was heated from room temperature to 150° C. at a rate of 10° C. min^−1, cooled at ° C. min^−1 to −75° C., then heated at 10° C. min^−1 to 145° C. min^−1. The isoniazid/bisVCap sample was heated from room temperature to 175° C. at a rate of 10° C. min^−1, cooled at ° C. min^−1 to −100° C., then heated at 10° C. min^−1 to 125° C. min^−1. The ROY/bisVCap sample was heated from room temperature to 150° C. at a rate of 10° C. min^−1, cooled at ° C. min^−1 to −90° C., then heated at 10° C. min^−1 to 155° C. min^−1.

[2] = format: physicochemical; details: for crystallinity of ROY sample on the basis of birefringence: coformer ground 1:1 molar with ROY (PVP K12, PVCap 1:1 by mass; ROY control without coformer), melted, cooled to room temperature overnight
From the text: Compounds 3-8 and VCap were all ground using a mortar and pestle in a 1:1 molar ratio with ROY. Comparative experiments were also undertaken in the same way with PVP (K12) (1) and PVCap (2) in a 1:1 ratio by mass with ROY. The samples were then placed on a microscope slide and covered with a thin, glass cover slip and heated using a hot stage optical microscope until all material had melted. The samples were then removed from the hot stage and allowed to cool to room temperature overnight. The cooled samples were examined under a microscope fitted with cross polarizing filters and assessed for crystallinity on the basis of birefringence.
as §1

[3] = Heat-cool-heat cycles on hot stage with polarized light microscope; format: physicochemical; details: 1:1 mixture with bisVCap
From the text: The same heat-cool-heat cycles used in the DSC experiments were reproduced using a hot stage attached to a polarized light microscope for 1:1 mixtures of carisoprodol, carbamazepine, isoniazid and ROY with bisVCap.
as §1

[4] = ground 1:1 mixture with bisVCap, heated to 150-180° C., cooled to −85° C., second heating cycle
[5] = Screening of bisVCap and bisVP with a range of drugs (hot stage melt, polarized optical microscopy); format: physicochemical; details: for crystallinity by polarized light microscopy, drug with bisVCap: drug:bisVCap 1:1 mol ratio, ground, melted, cooled, overnight / 18 hours at room temperature
Protocol: Control samples without lactam coformers were also prepared for comparison. The slides were then allowed to cool to room temperature. The samples were examined using polarized optical microscopy after storing them overnight and again two weeks after melting to assess their crystallinity. Polarized optical micrographs were observed.
as §1, with “For the amorphous material screening compounds were ground together in various drug to coformer ratio using 0.05 g of coformer in each case and heated at 30° C. min^−1 until the all of the sample had melted.” left out

[6] = Dynamic vapor sorption (DVS) water uptake; format: physicochemical; details: for hygroscopicity: DVS, small mass increase and lack of hysteresis; for mass increase in DVS plot: up to 90% relative humidity
Protocol: A significant issue with PVP as an amorphous stabilizer is its hydroscopicity, and amorphous materials are frequently hygroscopic. Dynamic vapor sorption (DVS) has been used to compare the water uptake of bisVCap and PVP. […] However, amorphous forms have more apparent solubility than crystal forms and it is possible that amorphous bisVCap could absorb much more water than the crystalline form.
DVS was performed using an SMS DVS-1 with a 10% RH step between humidity values with equilibrium achieved at 0.01% weight change before moving to the next step. Methods began at the humidity of the room at ambient which was measured by a Rotronic A/H hygrometer. The humidity was then increased to 90% RH before cycling to 0% RH, to 90% RH, to 0% RH. Samples weighing between 5-20mg were used.

Cc1cc(C#N)c(Nc2ccccc2[N+](=O)[O-])s1 [ROY, 5-methyl-2-[(2-nitrophenyl)amino]-3-thiophenecarbonitrile]
visible crystallization by polarized light microscopy ([1]; 2:1 drug:bisVCap molar ratio): no visible crystallization
visible crystallization by polarized light microscopy ([1]; 3:1 drug:bisVCap ratio): formed crystals overnight
crystallinity of ROY sample on the basis of birefringence [2]: readily crystallizes
time to ROY crystallization upon cooling ([2]; melt of ROY alone or 1:1 molar with coformer, cooling to room temperature): within a few minutes
coamorphous phase formation in hot stage heat-cool-heat cycle [3]: confirm coamorphous phase formation
DSC behaviour of mixture with bisVCap [4]: lacking features assignable to decomposition, recrystallization or melting endotherms in the second heating cycle

CCCCC(=O)N(Cc1ccc(-c2ccccc2-c2nnn[nH]2)cc1)[C@H](C(=O)O)C(C)C [Valsartan]
crystallinity by polarized light microscopy, drug on its own ([5]; control sample without lactam coformer, melted and cooled to room temperature): remains amorphous

CCOC(=O)c1ccc(N)cc1 [benzocaine]
crystallinity by polarized light microscopy, drug with bisVCap [5]: crystallized overnight

Cn1c(=O)c2c(ncn2C)n(C)c1=O [caffeine]
crystallinity by polarized light microscopy, drug with bisVCap [5]: crystallized overnight

NC(=O)N1c2ccccc2C=Cc2ccccc21 [carbamazepine]
crystallinity by polarized light microscopy, drug with bisVCap [5]: appear amorphous
visible crystallization by polarized light microscopy ([1]; 2:1 drug:bisVCap molar ratio): no visible crystallization
visible crystallization by polarized light microscopy ([1]; 3:1 drug:bisVCap ratio): formed crystals overnight
coamorphous phase formation in hot stage heat-cool-heat cycle [3]: confirm coamorphous phase formation
DSC behaviour of mixture with bisVCap [4]: lacking features assignable to decomposition, recrystallization or melting endotherms in the second heating cycle

CCCC(C)(COC(N)=O)COC(=O)NC(C)C (stereo not drawn) [carisoprodol]
crystallinity by polarized light microscopy, drug with bisVCap [5]: appear amorphous
visible crystallization by polarized light microscopy ([1]; 2:1 drug:bisVCap molar ratio): no visible crystallization
visible crystallization by polarized light microscopy ([1]; 3:1 drug:bisVCap ratio): did not show any visible crystallization
visible crystallization by polarized light microscopy ([1]; 4:1 drug:bisVCap ratio): formed crystals overnight
coamorphous phase formation in hot stage heat-cool-heat cycle [3]: confirm coamorphous phase formation
DSC behaviour of mixture with bisVCap [4]: lacking features assignable to decomposition, recrystallization or melting endotherms in the second heating cycle

NCCc1ccc(O)c(O)c1 [dopamine]
crystallinity by polarized light microscopy, drug with bisVCap [5]: appear amorphous

CCc1cc(C(N)=S)ccn1 [ethionamide]
crystallinity by polarized light microscopy, drug with bisVCap [5]: appear amorphous
DSC behaviour of mixture with bisVCap [4]: sharp and overlapping endothermic peaks on heating, which arise from decomposition

CC(C)Cc1ccc(C(C)C(=O)O)cc1 (stereo not drawn) [ibuprofen]
crystallinity by polarized light microscopy, drug with bisVCap [5]: appear amorphous
DSC behaviour of mixture with bisVCap [4]: sharp and overlapping endothermic peaks on heating, which arise from decomposition

NNC(=O)c1ccncc1 [isoniazid]
crystallinity by polarized light microscopy, drug with bisVCap [5]: appear amorphous
visible crystallization by polarized light microscopy ([1]; 2:1 drug:bisVCap molar ratio): no visible crystallization
visible crystallization by polarized light microscopy ([1]; 3:1 drug:bisVCap ratio): formed crystals overnight
coamorphous phase formation in hot stage heat-cool-heat cycle [3]: confirm coamorphous phase formation
DSC behaviour of mixture with bisVCap [4]: lacking features assignable to decomposition, recrystallization or melting endotherms in the second heating cycle

CN(C)C(=N)N=C(N)N [metformin]
crystallinity by polarized light microscopy, drug with bisVCap [5]: crystallized overnight

Cc1cccc(C)c1OCC(C)N (stereo not drawn) [mexiletine]
crystallinity by polarized light microscopy, drug with bisVCap [5]: appear amorphous
DSC behaviour of mixture with bisVCap [4]: sharp and overlapping endothermic peaks on heating, which arise from decomposition

Cc1c(Cl)cccc1Nc1ccccc1C(=O)O [tolfenamic acid]
crystallinity by polarized light microscopy, drug with bisVCap [5]: appear amorphous
DSC behaviour of mixture with bisVCap [4]: sharp and overlapping endothermic peaks on heating, which arise from decomposition

(bis)vinylcaprolactam [Amorphous bisVCap]
hygroscopicity [6]: not significantly hygroscopic
mass increase in DVS plot [6]: 1.2%

(bis)vinylcaprolactam [bisVCap]
hygroscopicity [6]: not hydroscopic
stability of coamorphous phase with ROY on storage [2]: stable for prolonged periods
crystallinity of ROY sample on the basis of birefringence [2]: gives a coamorphous phase with ROY

(bis)vinylcaprolactam [crystalline bisVCap]
hygroscopicity [6]: not significantly hygroscopic
mass increase in DVS plot [6]: 0.35%
